Laboratory results: ChEMBL document CHEMBL6114979, “Discovery of 3-indolylbenzoquinone derivatives with therapeutic potential for breast cancer” (Bioorg Med Chem, 2025)
In brackets after ≈: the same amount, converted by molar mass. Structures can show the parent of a compound that is named as a salt.

Assays:
MDA-MB-231 [1] = test: Antiproliferative activity against human MDA-MB-231 cells assessed as inhibition of cell proliferation incubated for 48 hrs by CCK-8 assay; assay type: functional, cell-based; conditions: MDA-MB-231, 48 h
A549 = test: Antiproliferative activity against human A549 cells assessed as inhibition of cell proliferation incubated for 48 hrs by CCK-8 assay; assay type: functional, cell-based; conditions: A549, 48 h
HepG2 = test: Antiproliferative activity against human HepG2 cells assessed as inhibition of cell proliferation incubated for 48 hrs by CCK-8 assay; assay type: functional, cell-based; conditions: HepG2, 48 h
MDA-MB-231 [2] = test: Induction of apoptosis in human MDA-MB-231 cells assessed as viable cells at 1 uM incubated for 24 hrs by Annexin-V/PI staining based flow cytometric analysis (reference value: 93.37%); assay type: functional; conditions: read-out: Activity
MDA-MB-231 [3] = test: Induction of apoptosis in human MDA-MB-231 cells assessed as early apoptotic cells at 1 uM incubated for 24 hrs by Annexin-V/PI staining based flow cytometric analysis (reference value: 2.69%); assay type: functional
MDA-MB-231 [4] = test: Induction of apoptosis in human MDA-MB-231 cells assessed as late apoptotic cells at 1 uM incubated for 24 hrs by Annexin-V/PI staining based flow cytometric analysis (reference value: 3.24%); assay type: functional
MDA-MB-231 [5] = test: Induction of apoptosis in human MDA-MB-231 cells assessed as necrotic cells at 1 uM incubated for 24 hrs by Annexin-V/PI staining based flow cytometric analysis (reference value: 0.71%); assay type: functional
MDA-MB-231 [6] = test: Induction of cell cycle arrest in human MDA-MB-231 cells assessed as accumulation of cells at G0/G1 phase at 1 uM incubated for 24 hrs by PI staining based flow cytometric analysis (reference value: 57.31%); assay type: functional
MDA-MB-231 [7] = test: Induction of cell cycle arrest in human MDA-MB-231 cells assessed as accumulation of cells at G2/M phase at 1 uM incubated for 24 hrs by PI staining based flow cytometric analysis (reference value: 33.98%); assay type: functional
MDA-MB-231 [8] = test: Induction of cell cycle arrest in human MDA-MB-231 cells assessed as accumulation of cells at S phase at 1 uM incubated for 24 hrs by PI staining based flow cytometric analysis (reference value: 8.71%); assay type: functional
[9] = Solubility of compound in water; assay type: physicochemical
[10] = Solubility of compound in 0.1 M HCL; assay type: physicochemical
[11] = Toxicity in female Balb/c mouse implanted with mouse 4T1 cells assessed as change in body weight at 10 mg/kg, ip administered every 2 days; assay type: organism-based; conditions: in vivo, 48 h
[12] = Toxicity in female Balb/c mouse implanted with mouse 4T1 cells assessed as appearance of spleen wrinkling at 10 mg/kg, ip administered once every 2 days for 14 days; assay type: organism-based; conditions: in vivo, 48 h, time 2 day
[13] = Toxicity in female Balb/c mouse implanted with mouse 4T1 cells assessed as appearance of infiltered tumor cells in adipose tissue at 10 mg/kg, ip administered once every 2 days for 14 days by H and E staining based analysis; assay type: organism-based; conditions: in vivo, 336 h, time 14 day
[14] = Toxicity in female Balb/c mouse implanted with mouse 4T1 cells assessed as appearance of irregular necrotic foci in tumor area at 10 mg/kg, ip administered once every 2 days for 14 days by H and E staining based analysis; assay type: organism-based; conditions: in vivo, 336 h, time 14 day
[15] = Toxicity in female Balb/c mouse implanted with mouse 4T1 cells assessed as appearance of tumor metastasis in spleen at 10 mg/kg, ip administered once every 2 days for 14 days by H and E staining based analysis; assay type: organism-based; conditions: in vivo, 336 h, time 14 day
[16] = Toxicity in female Balb/c mouse implanted with mouse 4T1 cells assessed as appearance of tumor metastasis in liver at 10 mg/kg, ip administered once every 2 days for 14 days by H and E staining based analysis; assay type: organism-based; conditions: in vivo, 336 h, time 14 day
[17] = Toxicity in female Balb/c mouse implanted with mouse 4T1 cells assessed as appearance of tumor metastasis in lung at 10 mg/kg, ip administered once every 2 days for 14 days by H and E staining based analysis; assay type: organism-based; conditions: in vivo, 336 h, time 14 day
[18] = Toxicity in female Balb/c mouse implanted with mouse 4T1 cells assessed as appearance of tumor metastasis in kidney at 10 mg/kg, ip administered once every 2 days for 14 days by H and E staining based analysis; assay type: organism-based; conditions: in vivo, 336 h, time 14 day

| SMILES | IC50 (MDA-MB-231 [1]) | IC50 (A549) | IC50 (HepG2) | other results |
| --- | --- | --- | --- | --- |
| Cc1[nH]c2ccccc2c1C1=C(NC2CC2)C(=O)C(F)=C(NC2CC2)C1=O | 5.49 µM | 4.93 µM | 4.19 µM |  |
| Cc1[nH]c2ccccc2c1C1=C(F)C(=O)C(c2c(C)[nH]c3ccccc23)=C(N2CCOCC2)C1=O | 8.9 µM | 10.2 µM | 12.4 µM |  |
| Cc1[nH]c2ccccc2c1C1=C(N2CCOCC2)C(=O)C(c2c(C)[nH]c3ccccc23)=C(N2CCOCC2)C1=O | > 100 µM | 10.8 µM | 11.3 µM |  |
| C#CCNC1=C(F)C(=O)C(F)=C(c2c(C)[nH]c3ccccc23)C1=O | 6.14 µM | > 100 µM | 6.43 µM |  |
| Cc1[nH]c2ccccc2c1C1=C(NCCNC(=O)OC(C)(C)C)C(=O)C(F)=C(NCCNC(=O)OC(C)(C)C)C1=O | 10.2 µM | 13.8 µM | 13.1 µM |  |
| C#CCNC1=C(F)C(=O)C(c2c(C)[nH]c3ccccc23)=C(F)C1=O | 7.82 µM | > 100 µM | 50.6 µM |  |
| Cc1[nH]c2ccccc2c1C1=C(N2CCCCC2)C(=O)C(F)=C(N2CCCCC2)C1=O | 4.41 µM | 6.8 µM | 4.22 µM |  |
| COC(=O)/C=C/C(=O)OCCCN1CCN(C2=C(F)C(=O)C(c3c(C)[nH]c4ccccc34)=C(N3CCN(CCCOC(=O)/C=C/C(=O)OC)CC3)C2=O)CC1 | 13.5 µM | > 100 µM | 61.4 µM |  |
| COc1ccc(/C=C\c2cc(OC)c(OC)c(OC)c2)cc1O [COMBRETASTATIN A4] |  |  |  | viability at 1 µM (MDA-MB-231 [2]): 79.8%; Activity (MDA-MB-231 [3]): 10.22%; Activity (MDA-MB-231 [4]): 8.43%; Activity (MDA-MB-231 [5]): 1.55%; Activity (MDA-MB-231 [6]): 39.37%; Activity (MDA-MB-231 [7]): 55.89%; Activity (MDA-MB-231 [8]): 9.19% |
| COC(=O)/C=C/OCCNC1=C(F)C(=O)C(c2c(C)[nH]c3ccccc23)=C(NCCOC(=O)/C=C/C(=O)OC)C1=O | 12 µM | 7.02 µM | 4.44 µM |  |
| Cc1[nH]c2ccccc2c1C1=C(F)C(=O)C(F)=C(F)C1=O | 8.57 µM | 14.2 µM | 12.4 µM |  |
| Cc1[nH]c2ccccc2c1C1=C(F)C(=O)C(F)=C(N2CCNCC2)C1=O | 4.65 µM | 12.5 µM | 8.15 µM |  |
| Cc1[nH]c2ccccc2c1C1=C(F)C(=O)C(F)=C(NCCNC(=O)OC(C)(C)C)C1=O | 7.18 µM | 4.76 µM | 4.91 µM |  |
| COC(=O)/C=C/C(=O)OCCCN1CCN(C2=C(F)C(=O)C(F)=C(c3c(C)[nH]c4ccccc34)C2=O)CC1 | 6.97 µM | 6.79 µM | 4.6 µM |  |
| Cc1[nH]c2ccccc2c1C1=C(N2CCN(C=O)CC2)C(=O)C(F)=C(N2CCN(C=O)CC2)C1=O | 7.4 µM | 12.1 µM | 8.13 µM |  |
| COC(=O)/C=C/C(=O)OCCNC1=C(F)C(=O)C(c2c(C)[nH]c3ccccc23)=C(F)C1=O | 6.47 µM | 6.31 µM | 25 µM |  |
| C#CCNC1=C(F)C(=O)C(NCC#C)=C(c2c(C)[nH]c3ccccc23)C1=O | 15.5 µM | 5.21 µM | 14.2 µM |  |
| Cc1[nH]c2ccccc2c1C1=C(F)C(=O)C(F)=C(NC2CC2)C1=O | 7.96 µM | 4.46 µM | 10.5 µM |  |
| Cc1[nH]c2ccccc2c1C1=C(F)C(=O)C(F)=C(N2CCN(C=O)CC2)C1=O | 8 µM | 53.1 µM | 5.43 µM |  |
| Cc1[nH]c2ccccc2c1C1=C(F)C(=O)C(F)=C(N2CCCCC2)C1=O | 8.26 µM | 32.9 µM | 14.5 µM |  |
| Cc1[nH]c2ccccc2c1C1=C(F)C(=O)C(N2CCOCC2)=C(F)C1=O | 4.27 µM | 14.2 µM | 7.78 µM |  |
| Cc1[nH]c2ccccc2c1C1=C(Cl)C(=O)C(Cl)=C(N2CCOCC2)C1=O |  |  |  | solubility [9]: 9 µg/mL (≈ 23 µM); solubility [10]: 6 µg/mL (≈ 15.3 µM) |
| COc1cccc2c1C(=O)c1c(O)c3c(c(O)c1C2=O)C[C@@](O)(C(=O)CO)C[C@@H]3O[C@H]1C[C@H](N)[C@H](O)[C@H](C)O1 [DOXORUBICIN HYDROCHLORIDE] | 2.34 µM | 0.3 µM |  | Activity [11]: Toxic; Activity [12]: Toxic; Activity [13]: Toxic; Activity [14]: Toxic; Activity [15]: Toxic; Activity [16]: Toxic; Activity [17]: Toxic; Activity [18]: Toxic |
| Cc1[nH]c2ccccc2c1C1=C(N2CCOCC2)C(=O)C(F)=C(N2CCOCC2)C1=O | 8.16 µM | 15.4 µM | 16.1 µM |  |
| Cc1[nH]c2ccccc2c1C1=C(F)C(=O)C(c2c(C)[nH]c3ccccc23)=C(F)C1=O | 10.8 µM | 15.7 µM | 11.3 µM |  |
